*1 amine or outer side, *2 acyl side, *3 side chain or, on linkers, in order; H or OH if unused. Where a SMILES comes first, the peptide text is derived from it. Side-chain parts run from the residue outwards. The star is where a group is joined. C18 diacid = O=C(O)CCCCCCCCCCCCCCCCC(=O)*; γGlu = O=C(O)[C@H](CCC(=O)[*:2])N[*:1]; Isovaleryl = CC(C)CC(=O)*; Ahx = NCCCCCC(=O)O
What was measured:
[1] = target: T1, Human Neuropeptide Y2 Receptor (Homo sapiens, UniProt P49146); assay: Radioligand binding competition assay (RLB); conditions: Table 3, 125I-PYY(1-36) competition; read-out: Ki
T1 construct: purchased CHEMICON HTS066M
T1 sequence (P49146 1-381): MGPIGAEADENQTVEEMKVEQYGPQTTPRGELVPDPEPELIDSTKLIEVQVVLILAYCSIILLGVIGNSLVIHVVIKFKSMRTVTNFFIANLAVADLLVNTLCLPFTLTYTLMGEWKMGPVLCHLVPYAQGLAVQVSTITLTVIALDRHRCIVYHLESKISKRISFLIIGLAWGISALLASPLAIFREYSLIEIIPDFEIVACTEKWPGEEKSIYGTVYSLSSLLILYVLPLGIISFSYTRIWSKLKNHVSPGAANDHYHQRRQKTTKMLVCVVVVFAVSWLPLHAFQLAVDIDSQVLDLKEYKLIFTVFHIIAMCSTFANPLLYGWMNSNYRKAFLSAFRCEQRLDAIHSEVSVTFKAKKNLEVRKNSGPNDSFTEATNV
In short: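 IC50 values come from sigmoidal dose-response fits of scintillation counts after peptides competed for radioligand binding at receptor membranes (0.5 μg protein/well). Incubation ran 2 h at room temperature in HEPES buffer, pH 7.4, with Mg2+, Ca2+ and 0.2% ovalbumin.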

Solubility determination = conditions: for Sol6: pH 6; for Sol7: pH 7
In short: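 Solubility is derived from the ratio of reversed-phase peak areas, filtered sample over a control dissolved at 1 mg/ml in 50% acetonitrile. Peptides are agitated for 2 hours at room temperature in 0.1 M sodium diphosphate at pH 6.4 or 7.0, aiming at 10 mg/ml.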

Ki [1]	Sol6 (Solubility determination)	Sol7 (Solubility determination)	Structure (SMILES)
3.6 nM	7.3 mg/mL	8.8 mg/mL	CC(C)CC(=O)N[C@@H](C)C(=O)N1CCC[C@H]1C(=O)N[C@@H](CCC(=O)O)C(=O)N[C@@H](CCCCNC(=O)CCCCCNC(=O)CC[C@H](NC(=O)CCCCCCCCCCCCCCCCC(=O)O)C(=O)O)C(=O)N1CCC[C@H]1C(=O)N[C@@H](CCC(=O)O)C(=O)N[C@@H](CCC(=O)O)C(=O)N[C@@H](CCC(=O)O)C(=O)N[C@@H](C)C(=O)N[C@@H](CO)C(=O)N1CCC[C@H]1C(=O)N[C@@H](C)C(=O)N[C@@H](CCC(=O)O)C(=O)N[C@@H](CC(C)C)C(=O)N[C@@H](CCC(N)=O)C(=O)N[C@@H](CCCNC(=N)N)C(=O)N[C@@H](Cc1ccc(O)cc1)C(=O)N[C@@H](Cc1ccc(O)cc1)C(=O)N[C@H](C(=O)N[C@@H](CO)C(=O)N[C@@H](CC(C)C)C(=O)N[C@@H](CCCNC(=N)N)C(=O)N[C@@H](Cc1c[nH]cn1)C(=O)N[C@@H](Cc1ccc(O)cc1)C(=O)N[C@@H](Cc1ccc(O)cc1)C(=O)N[C@@H](CC(N)=O)C(=O)N[C@@H](Cc1c[nH]c2ccccc12)C(=O)N[C@@H](CC(C)C)C(=O)N[C@H](C(=O)N[C@@H](CCCNC(=N)N)C(=O)N[C@@H](CCC(N)=O)C(=O)N[C@@H](CCCNC(=N)N)C(=O)N[C@@H](Cc1ccc(O)cc1)C(N)=O)[C@@H](C)O)C(C)C [Compound 139, N{alpha-4}-(3-methylbutanoyl)-N{epsilon-7}-(6-[(4S)-4-carboxy-4-(17-carboxyheptadecanamido)butanamido]hexanoyl)-[4A,7K,9E,11E,15A,18Q,22V,28Y,30W,31L]-hPYY(4-36)] (Isovaleryl-APEK([Ahx-γGlu-C18 diacid])PEEEASPAELQRYYVSLRHYYNWLTRQRY-NH2)
0.89 nM	8.1 mg/mL	8.3 mg/mL	CC(C)CC(=O)N[C@@H](C)C(=O)N1CCC[C@H]1C(=O)N[C@@H](CCC(=O)O)C(=O)N[C@@H](CCCCNC(=O)CCCCCNC(=O)CC[C@H](NC(=O)CCCCCCCCCCCCCCCCC(=O)O)C(=O)O)C(=O)N1CCC[C@H]1C(=O)N[C@@H](CCC(=O)O)C(=O)N[C@@H](C)C(=O)N[C@@H](CC(=O)O)C(=O)N[C@@H](C)C(=O)N[C@@H](CO)C(=O)N1CCC[C@H]1C(=O)N[C@@H](CCC(=O)O)C(=O)N[C@@H](CCC(=O)O)C(=O)N[C@H](C(=O)N[C@@H](CCC(N)=O)C(=O)N[C@@H](CCCNC(=N)N)C(=O)N[C@@H](Cc1ccc(O)cc1)C(=O)N[C@@H](Cc1ccc(O)cc1)C(=O)N[C@H](C(=O)N[C@@H](C)C(=O)N[C@@H](CC(C)C)C(=O)N[C@@H](CCCNC(=N)N)C(=O)N[C@@H](Cc1c[nH]cn1)C(=O)N[C@@H](Cc1ccc(O)cc1)C(=O)N[C@@H](Cc1ccc(O)cc1)C(=O)N[C@@H](CC(N)=O)C(=O)N[C@@H](Cc1c[nH]c2ccccc12)C(=O)N[C@@H](CC(C)C)C(=O)N[C@H](C(=O)N[C@@H](CCCNC(=N)N)C(=O)N[C@@H](CCC(N)=O)C(=O)N[C@@H](CCCNC(=N)N)C(=O)N[C@@H](Cc1ccc(O)cc1)C(N)=O)[C@@H](C)O)C(C)C)[C@@H](C)O [Compound 179, N{alpha-4}-(3-methylbutanoyl)-N{epsilon-7}-(6-[(4S)-4-carboxy-4-(17-carboxyheptadecanamido)butanamido]hexanoyl)-[4A,7K,9E,10A,17T,18Q,22V,23A,28Y,30W,31L]-hPYY(4-36)]
1.38 nM	>10.0 mg/mL	>10.0 mg/mL	CC[C@H](C)[C@H](NC(=O)[C@H](CCC(=O)O)NC(=O)[C@H](CCC(=O)O)NC(=O)[C@@H]1CCCN1C(=O)[C@H](CCC(=O)O)NC(=O)[C@H](C)NC(=O)[C@H](CC(=O)O)NC(=O)[C@H](C)NC(=O)[C@H](CCC(=O)O)NC(=O)[C@@H]1CCCN1C(=O)[C@H](CCCCNC(=O)CCCCCNC(=O)CC[C@H](NC(=O)CCCCCCCCCCCCCCCCC(=O)O)C(=O)O)NC(=O)[C@H](C)NC(=O)[C@@H]1CCCN1C(=O)[C@H](C)NC(=O)CC(C)C)C(=O)N[C@@H](CCC(N)=O)C(=O)N[C@@H](CCCNC(=N)N)C(=O)N[C@@H](Cc1ccc(O)cc1)C(=O)N[C@@H](Cc1ccc(O)cc1)C(=O)N[C@H](C(=O)N[C@@H](CO)C(=O)N[C@@H](CC(C)C)C(=O)N[C@@H](CCCNC(=N)N)C(=O)N[C@@H](Cc1c[nH]cn1)C(=O)N[C@@H](Cc1ccc(O)cc1)C(=O)N[C@@H](Cc1ccc(O)cc1)C(=O)N[C@@H](CC(N)=O)C(=O)N[C@@H](Cc1c[nH]c2ccccc12)C(=O)N[C@@H](CC(C)C)C(=O)N[C@H](C(=O)N[C@@H](CCCNC(=N)N)C(=O)N[C@@H](CCC(N)=O)C(=O)N[C@@H](CCCNC(=N)N)C(=O)N[C@@H](Cc1ccc(O)cc1)C(N)=O)[C@@H](C)O)C(C)C [Compound 198, N{alpha-4}-(3-methylbutanoyl)-N{epsilon-7}-(6-[(4S)-4-carboxy-4-(17-carboxyheptadecanamido)butanamido]hexanoyl)-[4A,6A,7K,9E,10A,13E,17I,18Q,22V,28Y,30W,31L]-hPYY(4-36)]
9.63 nM	10.0 mg/mL	9.2 mg/mL	CC(C)CC(=O)N[C@@H](C)C(=O)N1CCC[C@H]1C(=O)N[C@@H](CCC(=O)O)C(=O)N[C@@H](CCCCNC(=O)CCCCCNC(=O)CC[C@H](NC(=O)CCCCCCCCCCCCCCCCC(=O)O)C(=O)O)C(=O)N1CCC[C@H]1C(=O)N[C@@H](CCC(=O)O)C(=O)N[C@@H](CCC(=O)O)C(=O)N[C@@H](CC(=O)O)C(=O)N[C@@H](C)C(=O)N[C@H](C(=O)N[C@@H](CCC(=O)O)C(=O)N[C@@H](CCC(=O)O)C(=O)N[C@@H](CCC(=O)O)C(=O)N[C@@H](CC(C)C)C(=O)N[C@@H](CCC(N)=O)C(=O)N[C@@H](CCCNC(=N)N)C(=O)N[C@@H](Cc1ccc(O)cc1)C(=O)N[C@@H](Cc1ccc(O)cc1)C(=O)N[C@H](C(=O)N[C@@H](CO)C(=O)N[C@@H](CC(C)C)C(=O)N[C@@H](CCCNC(=N)N)C(=O)N[C@@H](Cc1c[nH]cn1)C(=O)N[C@@H](Cc1ccc(O)cc1)C(=O)N[C@@H](Cc1ccc(O)cc1)C(=O)N[C@@H](CC(N)=O)C(=O)N[C@@H](Cc1c[nH]c2ccccc12)C(=O)N[C@@H](CC(C)C)C(=O)N[C@H](C(=O)N[C@@H](CCCNC(=N)N)C(=O)N[C@@H](CCC(N)=O)C(=O)N[C@@H](CCCNC(=N)N)C(=O)N[C@@H](Cc1ccc(O)cc1)C(N)=O)[C@@H](C)O)C(C)C)[C@@H](C)O [Compound 19, N{alpha-4}-(3-methylbutanoyl)-N{epsilon-7}-(6-[(4S)-4-carboxy-4-(17-carboxyheptadecanamido)butanamido]hexanoyl)[4A,7K,9E,13T,14E,18Q,22V,28Y,30W,31L]-hPYY(4-36)]
9.73 nM	>10.0 mg/mL	9.0 mg/mL	CC(C)CC(=O)N[C@@H](C)C(=O)N1CCC[C@H]1C(=O)N[C@@H](C)C(=O)N[C@@H](CCCCNC(=O)CCCCCNC(=O)CC[C@H](NC(=O)CCCCCCCCCCCCCCCCC(=O)O)C(=O)O)C(=O)N1CCC[C@H]1C(=O)N[C@@H](CCC(=O)O)C(=O)N[C@@H](CCC(=O)O)C(=O)N[C@@H](CC(=O)O)C(=O)N[C@@H](C)C(=O)N[C@@H](CO)C(=O)N1CCC[C@H]1C(=O)N[C@@H](CCC(=O)O)C(=O)N[C@@H](CCC(=O)O)C(=O)N[C@@H](CC(C)C)C(=O)N[C@@H](CCC(N)=O)C(=O)N[C@@H](CCCNC(=N)N)C(=O)N[C@@H](Cc1ccc(O)cc1)C(=O)N[C@@H](Cc1ccc(O)cc1)C(=O)N[C@H](C(=O)N[C@@H](CO)C(=O)N[C@@H](CC(C)C)C(=O)N[C@@H](CCCNC(=N)N)C(=O)N[C@@H](Cc1c[nH]cn1)C(=O)N[C@@H](Cc1ccc(O)cc1)C(=O)N[C@@H](CCC(N)=O)C(=O)N[C@@H](CC(N)=O)C(=O)N[C@@H](Cc1c[nH]c2ccccc12)C(=O)N[C@@H](CC(C)C)C(=O)N[C@H](C(=O)N[C@@H](CCCNC(=N)N)C(=O)N[C@@H](CCC(N)=O)C(=O)N[C@@H](CCCNC(=N)N)C(=O)N[C@@H](Cc1ccc(O)cc1)C(N)=O)[C@@H](C)O)C(C)C [Compound 77, N{alpha-4}-(3-methylbutanoyl)-N{epsilon-7}-(6-[(4S)-4-carboxy-4-(17-carboxyheptadecanamido)butanamido]hexanoyl)-[4A,6A,7K,9E,18Q,22V,28Q,30W,31L]-hPYY(4-36)]
5.86 nM	9.7 mg/mL	10.0 mg/mL	CC(C)CC(=O)N[C@@H](C)C(=O)N1CCC[C@H]1C(=O)N[C@@H](CCC(=O)O)C(=O)N[C@@H](CCCCNC(=O)CCCCCNC(=O)CC[C@H](NC(=O)CCCCCCCCCCCCCCCCC(=O)O)C(=O)O)C(=O)N1CCC[C@H]1C(=O)N[C@@H](CCC(=O)O)C(=O)N[C@@H](CCC(=O)O)C(=O)N[C@@H](CC(=O)O)C(=O)N[C@@H](C)C(=O)N[C@H](C(=O)N1CCC[C@H]1C(=O)N[C@@H](CCC(=O)O)C(=O)N[C@@H](CCC(=O)O)C(=O)N[C@@H](CC(C)C)C(=O)N[C@@H](CCC(N)=O)C(=O)N[C@@H](CCCNC(=N)N)C(=O)N[C@@H](Cc1ccc(O)cc1)C(=O)N[C@@H](Cc1ccc(O)cc1)C(=O)N[C@H](C(=O)NCC(=O)N[C@@H](CC(C)C)C(=O)N[C@@H](CCCNC(=N)N)C(=O)N[C@@H](Cc1c[nH]cn1)C(=O)N[C@@H](Cc1ccc(O)cc1)C(=O)N[C@@H](Cc1ccc(O)cc1)C(=O)N[C@@H](CC(N)=O)C(=O)N[C@@H](Cc1c[nH]c2ccccc12)C(=O)N[C@@H](CC(C)C)C(=O)N[C@H](C(=O)N[C@@H](CCCNC(=N)N)C(=O)N[C@@H](CCC(N)=O)C(=O)N[C@@H](CCCNC(=N)N)C(=O)N[C@@H](Cc1ccc(O)cc1)C(N)=O)[C@@H](C)O)C(C)C)[C@@H](C)O [Compound 44, N{alpha-4}-(3-methylbutanoyl)-N{epsilon-7}-(6-[(4S)-4-carboxy-4-(17-carboxyheptadecanamido)butanamido]hexanoyl)[4A,7K,9E,13T,18Q,22V,23G,28Y,30W,31L]-hPYY(4-36)]
